According to patent US8026359B2, “Fungicidal heterocyclic amines” (E.I. du Pont de Nemours and Company, priority 2007, dated 2011):
Marks after values point to notes of the source that are not given here.

How the values were obtained:
Type in all cases: in vivo
Septoria tritici = assay: Test D: wheat leaf blotch, preventive spray on wheat seedlings
Procedure, shortened: (§1)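 Compounds were dissolved in acetone (3% of final volume), then suspended in 50/50 acetone/purified water with 250 ppm Trem 014 surfactant. Plants were sprayed to run-off at 200 ppm (equivalent to 500 g/ha) or 40 ppm.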

Alternaria solani = assay: Test H: tomato early blight, preventive spray on seedlings
Procedure, shortened: as §1

[1] = tested on: Erysiphe graminis f. sp. tritici; assay: Test A: wheat powdery mildew, preventive spray on wheat seedlings
Procedure, shortened: as §1

[2] = tested on: Puccinia recondita f. sp. tritici; assay: Test B: wheat leaf rust, preventive spray on wheat seedlings
Procedure, shortened: as §1

Botrytis cinerea = assay: Test F: tomato Botrytis, preventive spray on tomato seedlings
Procedure, shortened: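 Preventive run-off spray onto tomato seedlings at 200 ppm (equivalent to 500 g/ha) or 40 ppm. Suspensions: compound predissolved in acetone at 3% of final volume, then taken up in acetone/purified water 50/50 containing 250 ppm Trem® 014 surfactant.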

Fusarium graminearum = assay: whole plant or invertebrate
Septoria nodorum = assay: Test C: wheat glume blotch, preventive spray on wheat seedlings
Procedure, shortened: as §1

Pythium aphanidermatum = assay: Test M: bluegrass pythium blight, preventive spray on bluegrass seedlings; details: 200 ppm; 100 = 100% disease control, 0 = no control relative to controls
Description: (§2) General protocol for preparing test suspensions for Tests A-R: The test compounds were first dissolved in acetone in an amount equal to 3% of the final volume and then suspended at the desired concentration (in ppm) in acetone and purified water (50/50 mix) containing 250 ppm of the surfactant Trem® 014 (polyhydric alcohol esters). The resulting test suspensions were then used in tests A-R. In Tests A-M, compounds were sprayed as a 200 ppm test suspension (equivalent to a rate of 500 g/ha) or as a 40 ppm test suspension to the point of runoff on the test plants. In Tests N-R, compounds were sprayed as a 100 g/ha test suspension (equivalent to a rate of 100 ppm) on the test plants at an application volume of 1000 L/ha. The test suspension was sprayed to the point of run-off on bluegrass seedlings.

Rhizoctonia oryzae = assay: Test J: turf brown patch, preventive spray on creeping bent grass seedlings; details: 200 ppm; 100 = 100% disease control, 0 = no control relative to controls
Description: as §2, with “creeping bent grass” for “bluegrass”

Phytophthora infestans = details: 200 ppm; 100 = 100% disease control, 0 = no control relative to controls
[3] = tested on: Colletotrichum orbiculare; assay: Test I: cucumber Colletotrichum anthracnose, preventive spray on cucumber seedlings; details: 200 ppm; 100 = 100% disease control, 0 = no control relative to controls
Procedure, shortened: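 Preventive foliar spray to run-off on cucumber seedlings, at 200 ppm (stated as equal to 500 g/ha) or 40 ppm. Test suspensions were made in acetone/water 50/50 containing 250 ppm Trem 014, after first dissolving compound in acetone at 3% of final volume.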

Plasmopara viticola = assay: Test L: grape downy mildew, spray after inoculation of grape seedlings; details: 200 ppm; 100 = 100% disease control, 0 = no control relative to controls
Description: as §2, with “L/ha. Grape seedlings were inoculated with a spore suspension of Plasmopara viticola (the causal agent of grape downy mildew) and incubated in a saturated atmosphere at 20° C. for 24 h. After a short drying period, the” for “L/ha. The”, “on the grape seedlings and then moved to a growth chamber at 20° C. for 6 days, after which time the test units were placed back into a saturated atmosphere at 20° C. for 24 h. Upon removal, disease ratings were made.” for “on bluegrass seedlings.”

[4] = 200 ppm, 100 = 100% disease control, 0 = no control relative to controls
[5] = Fusarium graminearum, in Triticum aestivum, 192 h, read-out: Test E disease control rating

Compound | Test A disease control rating [1, 4] | Test B disease control rating [2, 4] | Test F disease control rating (Botrytis cinerea; [4]) | Test E disease control rating (Fusarium graminearum; [4]) | Test C disease control rating (Septoria nodorum; [4]) | Test M disease control rating (Pythium aphanidermatum) | Test J disease control rating (Rhizoctonia oryzae) | Test K disease control rating (Phytophthora infestans) | Test I disease control rating [3] | Test L disease control rating (Plasmopara viticola) | further results
Fc1cc(F)cc(Nc2ncnc(-c3ccnc(NC4CCOCC4)n3)n2)c1 [Compound 34] | 0% | 98% | 0% | 68% | 100% | – | – | – | – | – | Test D disease control rating (Septoria tritici; [4]): 59%; Test H disease control rating (Alternaria solani; [4]): 94%
COC[C@H](C)Nc1nccc(-c2ncnc(Nc3cc(F)cc(C#N)c3)n2)n1 [Compound 36] | – | – | – | – | – | – | – | – | – | – | Test D disease control rating (Septoria tritici; 40 ppm (marked *)): 29* %; Test H disease control rating (Alternaria solani; 40 ppm (marked *)): 99* %; Test A disease control rating ([1]; 40 ppm (marked *)): 0* %; Test B disease control rating ([2]; 40 ppm (marked *)): 99* %; Test F disease control rating (Botrytis cinerea; 40 ppm (marked *)): 99* %; Test E disease control rating (Fusarium graminearum; 40 ppm (marked *)): 91* %; Test C disease control rating (Septoria nodorum; 40 ppm (marked *)): 100* %
COC[C@H](C)Nc1nccc(-c2ncnc(Nc3ccc(C#N)nc3)n2)n1 [Compound 37, 5-[[4-[2-[[(1S)-2-methoxy-1-methylethyl]amino]-4-pyrimidinyl]-1,3,5-triazinyl]amino]-2-pyridinecarbonitrile] | – | – | – | – | – | – | – | – | – | – | pest or weed control at 200 ppm (Septoria tritici; Zymoseptoria tritici, 504 h, 200 ppm, 100 = 100% disease control, 0 = no control relative to controls, read-out: Test D disease control rating): 0%; pest or weed control at 200 ppm (Alternaria solani; Alternaria solani, 168 h, 200 ppm, 100 = 100% disease control, 0 = no control relative to controls, read-out: Test H disease control rating): 72%; pest or weed control at 200 ppm ([1]; Blumeria graminis, 192 h, 200 ppm, 100 = 100% disease control, 0 = no control relative to controls, read-out: Test A disease control rating): 79%; pest or weed control at 200 ppm ([2]; Puccinia recondita, 192 h, 200 ppm, 100 = 100% disease control, 0 = no control relative to controls, read-out: Test B disease control rating): 99%; pest or weed control at 200 ppm (Botrytis cinerea; Botrytis cinerea, 120 h, 200 ppm, 100 = 100% disease control, 0 = no control relative to controls, read-out: Test F disease control rating): 0%; pest or weed control at 200 ppm (Fusarium graminearum; [5]): 41%; pest or weed control at 200 ppm (Septoria nodorum; Parastagonospora nodorum, 216 h, 200 ppm, 100 = 100% disease control, 0 = no control relative to controls, read-out: Test C disease control rating): 98%
COC[C@H](C)Nc1nccc(-c2ncnc(Nc3cc(F)cc([N+](=O)[O-])c3)n2)n1 [Compound 39, N-(3-fluoro-5-nitrophenyl)-4-[2-[[(1S)-2-methoxy-1-methylethyl]amino]-4-pyrimidinyl]-1,3,5-triazin-2-amine] | – | – | – | – | – | – | – | – | – | – | pest or weed control at 40 ppm (Septoria tritici; Zymoseptoria tritici, 504 h, 40 ppm (marked *), read-out: Test D disease control rating): 24%; pest or weed control at 40 ppm (Alternaria solani; Alternaria solani, 168 h, 40 ppm (marked *), read-out: Test H disease control rating): 99%; pest or weed control at 40 ppm ([1]; Blumeria graminis, 192 h, 40 ppm (marked *), read-out: Test A disease control rating): 0%; pest or weed control at 40 ppm ([2]; Puccinia recondita, 192 h, 40 ppm (marked *), read-out: Test B disease control rating): 98%; pest or weed control at 40 ppm (Botrytis cinerea; Botrytis cinerea, 120 h, 40 ppm (marked *), read-out: Test F disease control rating): 60%; pest or weed control at 40 ppm (Fusarium graminearum; [5]): 82%; pest or weed control at 40 ppm (Septoria nodorum; Parastagonospora nodorum, 216 h, 40 ppm (marked *), read-out: Test C disease control rating): 99%
COCC(C)Nc1nccc(-c2ccnc(Nc3ccccc3)c2)n1 (centres unmarked) [Compound 43] | 29% | 99% | 92% | 100% | 99% | 0% | 9% | 0% | 90% | 0% | –
COCC(C)Nc1nccc(-c2ccnc(Nc3cccc([N+](=O)[O-])c3)c2)n1 (centres unmarked) [Compound 44] | 0% | 89% | 0% | 99% | 98% | 0% | 0% | 0% | 40% | 0% | –
CC(C)(C)Nc1nccc(-c2ccnc(Nc3cccc(F)c3)c2)n1 [Compound 45] | 77% | 79% | 20% | 90% | 98% | 0% | 0% | 0% | 8% | 0% | –
COCC(C)Nc1nccc(-c2ccnc(Nc3cccc(Cl)c3F)c2)n1 (centres unmarked) [Compound 46] | 0% | 91% | 7% | 94% | 97% | 0% | 0% | 0% | 0% | 0% | –
COCC(C)Nc1nccc(-c2ccnc(Nc3ccc(F)cc3F)c2)n1 (centres unmarked) [Compound 47] | 0% | 85% | 0% | 92% | 0% | 0% | 0% | 0% | 40% | 0% | –
Fc1ccc(F)c(Nc2cc(-c3ccnc(NC4CCOCC4)n3)ccn2)c1F [Compound 73] | 43% | 96% | 57% | 0% | 99% | 0% | – | 0% | 85% | – | Test D disease control rating (Septoria tritici; [4]): 40%
Cc1cc(Cl)cc(Cl)c1Nc1cc(-c2ccnc(NC3CCOCC3)n2)ccn1 [Compound 100] | 0% | 98% | 0% | 96% | 98% | – | – | – | 0% | – | Test D disease control rating (Septoria tritici; [4]): 77%; Test H disease control rating (Alternaria solani; [4]): 99%
